Results published in patent US10800792B2, “Inhibitors of Bruton's tyrosine kinase and method of their use” (JANSSEN PHARMACEUTICA NV, priority 2015, dated 2020).

Biological target: unphosphorylated-BTK kinase domain (UP-BTK), GST-tagged human BTK (389-659aa) (Homo sapiens (Human), UniProt Q06187)
Assay: BTK kinase Lanthascreen binding assay
Settings: pIC50 = negative log of the IC50 in molar; 60 minutes incubation, 50 nM Tracer 236
How it was run: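 Values are pIC50, i.e. negative log of IC50 in molar, derived from concentration–response fitting. Each compound competes with a fluorescently labelled tracer for the unphosphorylated kinase domain.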

Chain of unphosphorylated-BTK kinase domain (UP-BTK), GST-tagged human BTK (389-659aa) (Q06187 389-659): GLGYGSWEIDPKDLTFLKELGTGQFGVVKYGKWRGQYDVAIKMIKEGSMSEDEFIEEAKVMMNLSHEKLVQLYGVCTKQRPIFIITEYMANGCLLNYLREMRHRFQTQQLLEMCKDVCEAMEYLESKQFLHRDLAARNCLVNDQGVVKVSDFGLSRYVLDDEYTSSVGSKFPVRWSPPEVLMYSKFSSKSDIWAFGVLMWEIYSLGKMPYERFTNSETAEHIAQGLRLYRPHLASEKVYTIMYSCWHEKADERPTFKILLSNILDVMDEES

| SMILES | BTK_I_binding pIC50 |
| --- | --- |
| CN1CCC[C@@H](NC(=O)c2sc3nccc4c3c2NC(=O)N4c2ccc(Oc3ccccc3)cc2Cl)C1 [Example 133, (R)-5-(2-Chloro-4-phenoxyphenyl)-N-(1-methylpiperidin-3-yl)-4-oxo-4,5-dihydro-3H-1-thia-3,5,8-triazaacenaphthylene-2-carboxamide] | 7.0 |
| Cc1cc(Oc2ccccc2)ccc1N1C(=O)Nc2c(C(=O)N[C@@H]3CCCN(C(=O)/C(C#N)=C\C(C)(C)N(C)C)C3)sc3nccc1c23 [Example 134, (R,Z)—N-(1-(2-Cyano-4-(dimethylamino)-4-methylpent-2-enoyl)piperidin-3-yl)-5-(2-methyl-4-phenoxyphenyl)-4-oxo-4,5-dihydro-3H-1-thia-3,5,8-triazaacenaphthylene-2-carboxamide] | 7.1 |
| CN1CCC[C@@H](NC(=O)c2sc3nccc4c3c2NC(=O)N4c2ccc(Oc3ccccc3)cc2F)C1 [Example 135, (R)-5-(2-Fluoro-4-phenoxyphenyl)-N-(1-methylpiperidin-3-yl)-4-oxo-4,5-dihydro-3H-1-thia-3,5,8-triazaacenaphthylene-2-carboxamide] | 7.2 |
| Cc1cc(Oc2ccccc2)ccc1N1C(=O)Nc2c(C(=O)N[C@@H]3CCCN(C(=O)C4COC4)C3)sc3nccc1c23 [Example 136, (R)-5-(2-Methyl-4-phenoxyphenyl)-N-(1-(oxetane-3-carbonyl)piperidin-3-yl)-4-oxo-4,5-dihydro-3H-1-thia-3,5,8-triazaacenaphthylene-2-carboxamide] | 7.1 |
| Cc1cc(Oc2ccccc2)ccc1N1C(=O)Nc2c(C(=O)N[C@H]3CNC[C@H](F)C3)sc3nccc1c23 [Example 138, N-((3R,5R)-5-fluoropiperidin-3-yl)-5-(2-methyl-4-phenoxyphenyl)-4-oxo-4,5-dihydro-3H-1-thia-3,5,8-triazaacenaphthylene-2-carboxamide] | 7.0 |
| CCN1CC[C@@H](NC(=O)c2sc3nccc4c3c2NC(=O)N4c2ccc(Oc3ccccc3)cc2C)C1 [Example 141, (R)—N-(1-Ethylpyrrolidin-3-yl)-5-(2-methyl-4-phenoxyphenyl)-4-oxo-4,5-dihydro-3H-1-thia-3,5,8-triazaacenaphthylene-2-carboxamide] | 6.8 |
| C=C(C(=O)N1CCC[C@@H](NC(=O)c2sc3nccc4c3c2NC(=O)N4c2ccc(Oc3ccccc3)cc2C)C1)C(F)(F)F [Example 144, (R)-5-(2-Methyl-4-phenoxyphenyl)-4-oxo-N-(1-(2-(trifluoromethyl)acryloyl)piperidin-3-yl)-4,5-dihydro-3H-1-thia-3,5,8-triazaacenaphthylene-2-carboxamide] | 7.5 |
| Cc1ccccc1Oc1ccc(N2C(=O)Nc3c(C(=O)N[C@@H]4CCCN(C)C4)sc4nccc2c34)c(C)c1 [Example 148, (R)-5-(2-Methyl-4-(o-tolyloxy)phenyl)-N-(1-methylpiperidin-3-yl)-4-oxo-4,5-dihydro-3H-1-thia-3,5,8-triazaacenaphthylene-2-carboxamide] | 6.9 |
| Cc1cc(Oc2ccccc2)ccc1N1C(=O)Nc2c(C(=O)N[C@@H]3CCCN(C(=O)/C(C#N)=C/C(C)(C)N4CCCCC4)C3)sc3nccc1c23 [Example 150, (R,E)-N-(1-(2-Cyano-4-methyl-4-(piperidin-1-yl)pent-2-enoyl)piperidin-3-yl)-5-(2-methyl-4-phenoxyphenyl)-4-oxo-4,5-dihydro-3H-1-thia-3,5,8-triazaacenaphthylene-2-carboxamide] | 6.9 |
| Cc1cc(Oc2ccccc2)ccc1N1C(=O)Nc2c(C(=O)N[C@@H]3CCCN(C(=O)/C(C#N)=C/C(C)(C)NC4CC4)C3)sc3nccc1c23 [Example 152, (R,E)-N-(1-(2-Cyano-4-(cyclopropylamino)-4-methylpent-2-enoyl)piperidin-3-yl)-5-(2-methyl-4-phenoxyphenyl)-4-oxo-4,5-dihydro-3H-1-thia-3,5,8-triazaacenaphthylene-2-carboxamide] | 7.3 |
| COC(C)CC(=O)N1CCC[C@@H](NC(=O)c2sc3nccc4c3c2NC(=O)N4c2ccc(Oc3ccccc3)cc2C)C1 (stereo partly drawn) [Example 155, N-((3R)-1-(3-Methoxybutanoyl)piperidin-3-yl)-5-(2-methyl-4-phenoxyphenyl)-4-oxo-4,5-dihydro-3H-1-thia-3,5,8-triazaacenaphthylene-2-carboxamide] | 7.0 |
| CCOc1ccccc1Oc1ccc(N2C(=O)Nc3c(C(=O)N[C@@H]4CCCN(C)C4)sc4nccc2c34)c(C)c1 [Example 157, (R)-5-(4-(2-Ethoxyphenoxy)-2-methylphenyl)-N-(1-methylpiperidin-3-yl)-4-oxo-4,5-dihydro-3H-1-thia-3,5,8-triazaacenaphthylene-2-carboxamide] | 6.6 |
| COCC(C)C(=O)N1CCC[C@@H](NC(=O)c2sc3nccc4c3c2NC(=O)N4c2ccc(Oc3ccccc3)cc2C)C1 (stereo partly drawn) [Example 158, N-((3R)-1-(3-Methoxy-2-methylpropanoyl)piperidin-3-yl)-5-(2-methyl-4-phenoxyphenyl)-4-oxo-4,5-dihydro-3H-1-thia-3,5,8-triazaacenaphthylene-2-carboxamide] | 7.1 |

Next, values leading:

| BTK_I_binding pIC50 | SMILES |
| --- | --- |
| 6.6 | C=CC(=O)N1CC[C@@H](N(C)C(=O)c2sc3nccc4c3c2NC(=O)N4c2ccc(Oc3ccccc3)cc2C)C1 [Example 137, (R)—N-(1-Acryloylpyrrolidin-3-yl)-N-methyl-5-(2-methyl-4-phenoxyphenyl)-4-oxo-4,5-dihydro-3H-1-thia-3,5,8-triazaacenaphthylene-2-carboxamide] |
| 7.2 | COCCC(=O)N1C[C@H](NC(=O)c2sc3nccc4c3c2NC(=O)N4c2ccc(Oc3ccccc3)cc2C)[C@@H](O)C1 [Example 139, N-((3S,4S)-4-Hydroxy-1-(3-methoxypropanoyl)pyrrolidin-3-yl)-5-(2-methyl-4-phenoxyphenyl)-4-oxo-4,5-dihydro-3H-1-thia-3,5,8-triazaacenaphthylene-2-carboxamide] |
| 6.7 | CC(C)=C(C#N)C(=O)N1CCC[C@@H](NC(=O)c2sc3nccc4c3c2NC(=O)N4c2ccc(Oc3ccccc3)cc2C)C1 [Example 140, (R)—N-(1-(2-Cyano-3-methylbut-2-enoyl)piperidin-3-yl)-5-(2-methyl-4-phenoxyphenyl)-4-oxo-4,5-dihydro-3H-1-thia-3,5,8-triazaacenaphthylene-2-carboxamide] |
| 7.2 | COC[C@H](OC)C(=O)N1CCC[C@@H](NC(=O)c2sc3nccc4c3c2NC(=O)N4c2ccc(Oc3ccccc3)cc2C)C1 [Example 142, N—((R)-1-((S)-2,3-Dimethoxypropanoyl)piperidin-3-yl)-5-(2-methyl-4-phenoxyphenyl)-4-oxo-4,5-dihydro-3H-1-thia-3,5,8-triazaacenaphthylene-2-carboxamide] |
| 7.3 | COC[C@@H](O)C(=O)N1CCC[C@@H](NC(=O)c2sc3nccc4c3c2NC(=O)N4c2ccc(Oc3ccccc3)cc2C)C1 [Example 143, N—((R)-1-((R)-2-Hydroxy-3-methoxypropanol)piperidin-3-yl)-5-(2-methyl-4-phenoxyphenyl)-4-oxo-4,5-dihydro-3H-1-thia-3,5,8-triazaacenaphthylene-2-carboxamide] |
| 7.0 | Cc1cc(Oc2ccccc2)ccc1N1C(=O)Nc2c(C(=O)N[C@@H]3CCCN(C(=O)[C@@H]4CCN(C)C4)C3)sc3nccc1c23 [Example 145, 5-(2-Methyl-4-phenoxyphenyl)-N—((R)-1-((R)-1-methylpyrrolidine-3-carbonyl)piperidin-3-yl)-4-oxo-4,5-dihydro-3H-1-thia-3,5,8-triazaacenaphthylene-2-carboxamide] |
| 7.4 | Cc1cc(Oc2ccccc2)ccc1N1C(=O)Nc2c(C(=O)N[C@@H]3CCCN(C(=O)CCS(C)(=O)=O)C3)sc3nccc1c23 [Example 146, (R)-5-(2-Methyl-4-phenoxyphenyl)-N-(1-(3-(methylsulfonyl)propanoyl)piperidin-3-yl)-4-oxo-4,5-dihydro-3H-1-thia-3,5,8-triazaacenaphthylene-2-carboxamide] |
| 6.8 | Cc1cc(Oc2ccccc2)ccc1N1C(=O)Nc2c(C(=O)N[C@@H]3CCN(C4CC4)C3)sc3nccc1c23 [Example 149, (R)—N-(1-Cyclopropylpyrrolidin-3-yl)-5-(2-methyl-4-phenoxyphenyl)-4-oxo-4,5-dihydro-3H-1-thia-3,5,8-triazaacenaphthylene-2-carboxamide] |
| 7.2 | Cc1cc(Oc2ccccc2)ccc1N1C(=O)Nc2c(C(=O)N[C@@H]3CCCN(C(=O)CN)C3)sc3nccc1c23 [Example 151, (R)—N-(1-(2-Aminoacetyl)piperidin-3-yl)-5-(2-methyl-4-phenoxyphenyl)-4-oxo-4,5-dihydro-3H-1-thia-3,5,8-triazaacenaphthylene-2-carboxamide] |
| 7.2 | Cc1cc(Oc2ccccc2)ccc1N1C(=O)Nc2c(C(=O)N[C@H]3CNC[C@H]3F)sc3nccc1c23 [Example 154, N-((3S,4R)-4-Fluoropyrrolidin-3-yl)-5-(2-methyl-4-phenoxyphenyl)-4-oxo-4,5-dihydro-3H-1-thia-3,5,8-triazaacenaphthylene-2-carboxamide] |
| 7.1 | COC[C@H](C)C(=O)N1CCC[C@@H](NC(=O)c2sc3nccc4c3c2NC(=O)N4c2ccc(Oc3ccccc3)cc2C)C1 [Example 156, N—((R)-1-((S)-3-Methoxy-2-methylpropanoyl)piperidin-3-yl)-5-(2-methyl-4-phenoxyphenyl)-4-oxo-4,5-dihydro-3H-1-thia-3,5,8-triazaacenaphthylene-2-carboxamide] |
| 7.1 | Cc1cc(Oc2ccccc2)ccc1N1C(=O)Nc2c(C(=O)N[C@@H]3CCNC3)sc3nccc1c23 [Example 159, (R)-5-(2-methyl-4-phenoxyphenyl)-4-oxo-N-(pyrrolidin-3-yl)-4,5-dihydro-3H-1-thia-3,5,8-triazaacenaphthylene-2-carboxamide] |
